In ChEMBL document CHEMBL1641395, “Highly brominated antimicrobial metabolites from a marine Pseudoalteromonas sp” (J Nat Prod, 2010) one finds IC50 data, which are given here for 5 molecules.

The test system of this assay is Staphylococcus aureus. Description: Antibacterial activity against methicillin-resistant Staphylococcus aureus ATCC 43300 after 12 hrs by Broth microdilution method. Type of assay: functional, organism-based. The settings on record: ATCC 43300, 12 h. (In general: Broth dilution looks for growth in wells or tubes with falling amounts of substance.)
In turn, `Brc1cc(Br)c2oc3c(Br)c(Br)[nH]c3c2c1` returned an IC50 of 1930 nM.
Molecule `Oc1ccc(Br)cc1-c1cc(Br)cc(Br)c1O` showed an IC50 of 2190 nM.
Next, `Oc1c(Br)cc(Br)cc1-c1cc(Br)cc(Br)c1O` [BROMOPHENE]: 2140 nM.
Next, `Oc1c(Br)cc(Br)cc1-c1[nH]c(Br)c(Br)c1Br` [PENTABROMOPSEUDILIN]: 100 nM; `CN[C@H](CC(C)C)C(=O)N[C@H]1C(=O)N[C@@H](CC(N)=O)C(=O)N[C@H]2C(=O)N[C@H]3C(=O)N[C@H](C(=O)N[C@H](C(=O)O)c4cc(O)cc(O)c4-c4cc3ccc4O)[C@H](O)c3ccc(c(Cl)c3)Oc3cc2cc(c3O[C@@H]2O[C@H](CO)[C@@H](O)[C@H](O)[C@H]2O[C@H]2C[C@](C)(N)[C@H](O)[C@H](C)O2)Oc2ccc(cc2Cl)[C@H]1O` [VANCOMYCIN]: 910 nM.

For orientation: IC50 means the concentration that gives 50% inhibition.
